We go through 3 compounds from patent publication US6479553B1, “Use of certain affinity NMDA antagonists as antidepressants” (AstraZeneca AB, priority 1999, dated 2002).

Entries after “also recorded” stand apart in the source; their conditions may differ. Marks after values point to notes of the source that are not given here.

Type in all cases: in vivo
Series [1] has as its system male NMRI mice. Briefly: Small tube test in mice. Particulars: for Average Immobility Time: small tube test, 60 minutes pre-test, last four minutes of test; for Effect on immobility in the small tube test, in words: summary of Table 2, check for non-specific stimulant activity.
The test system of series [2] is rat. Nature of the series: Test for possible sedative activity (motor activity) in the rat. Particulars: 200 mg/kg, up to fifty times the oral effective dose in the MES test. How it is done: (S)-1-Phenyl-2-(2-pyridyl)ethanamine was further tested for possible sedative activity in the rat. At doses up to fifty times the oral effective dose in the maximum electroshock seizure test (MES), (S)-1-phenyl-2-(2-pyridyl)ethanamine induced no changes in four parameters of motor activity, namely, distance travelled, ambulatory time, stereotyped time and resting time. The dose administered was 200 mg/kg.

For series [3], the system named is male NMRI mice. Nature of the series: Forced swim test in mice. Particulars: for Average Immobility Time: forced swim test, 60 minutes pre-test, last four minutes of test.

Take `Cl.Cl.N[C@@H](Cc1ccccn1)c1ccccc1` [(S)-1-phenyl-2-(2-pyridyl)ethanamine dihydrochloride]: the “Average Immobility Time” value in series [1] (dose 1 mg/kg i.p.) was 192 s; in series [1] (dose 3 mg/kg i.p.) it was 210* seconds; in series [1] (dose 10 mg/kg i.p.), 201 s; in series [3] (dose 1 mg/kg i.p.), 158 s; in series [3] (dose 3 mg/kg i.p.), 120* seconds; in series [3] (dose 10 mg/kg i.p.) it was 145* seconds. Moreover, in series [1], the “Effect on immobility in the small tube test, in words” value (“Effect on immobility” below) is reported as “little effect”. Moreover, in series [2], the “Changes in four parameters of motor activity (distance travelled, ambulatory time, stereotyped time and resting time)” value was “no changes”. The “Effect in the forced swim test (reduction in immobility time), in words” value in series [3] (summary of Table 1, dihydrochloride) was “positive effects; also recorded: have activity in the mouse forced swim test”.

On to `CN(C)CCCN1c2ccccc2CCc2ccccc21` [Imipramine, imipramine], for which the “Average Immobility Time” value is 202 s in series [1] (dose 10 mg/kg i.p.) and 143* seconds in series [3] (dose 10 mg/kg i.p.). For the same compound, the “Effect on immobility” value in series [1] is “little effect”. Further, the “Effect in the forced swim test (reduction in immobility time), in words” value in series [3] (summary of Table 1) is “very similar result to that observed with (S)-1-phenyl-2-(2-pyridyl)ethanamine”.

Consider (+)-MK 801, for which the “Average Immobility Time” value in series [1] (dose 0.01 mg/kg i.p.) was 190 s; in series [1] (dose 0.03 mg/kg i.p.), 173 s; in series [1] (dose 0.1 mg/kg i.p.), 128* seconds; in series [1] (dose 0.3 mg/kg i.p.) it was 84* seconds; in series [3] (dose 0.01 mg/kg i.p.) it was 155 s; in series [3] (dose 0.03 mg/kg i.p.) it was 164 s. The results for the “Average Immobility Time” value in series [3] (dose 0.1 mg/kg i.p.) and in series [3] (dose 0.3 mg/kg i.p.) were 80* seconds and 10* seconds, respectively. In addition, the “Effect on immobility” value in series [1] is on record as “reduced immobility”. The “Effect in the forced swim test (reduction in immobility time), in words” value in series [3] (summary of Table 1) is recorded as “positive effects”.
